Measured values: patent US3935229A, “Esters of 2-[(4-quinolyl)amino]-benzoic acids” (Synthelabo, priority 1973, dated 1976)
Where a name gives a salt, the structure may show the parent alone.

Tests used:
[1] = test system: mice of both sexes, of the Swiss strain; experiment: in vivo; settings: mice, oral administration
Description: Tests were carried out on mice of both sexes, of the Swiss strain, of average weight 20 g. (± 2g.).

[2] = test system: heated plate test, Swiss mice; experiment: Heated plate test (plate heated by acetone vapours; analgesic effects of the central type); settings: oral
[3] = test system: carragenine-induced oedema of the paw, Sherman rats; experiment: Carragenine-induced oedema test (oedema of the paw); assay type: in vivo; settings: Rattus norvegicus, po, read-out: Carragenine-induced oedema test AD (AD40 = 40% active dose)
[4] = test system: pain induced, in Swiss mice, by the intraperitoneal injection of phenylquinone; experiment: Siegmund test (analgesic effect against pain induced by intraperitoneal phenylquinone); assay type: in vivo; settings: for ED50: Mus musculus, po, read-out: Siegmund test AD50 (50% active dose), mice, oral administration
Excerpt: 1. Effect against pain induced, in Swiss mice, by the intraperitoneal injection of phenylquinone, in accordance with the experimental procedure of Siegmund (Proc. Soc. Exp. Biol. Med., 1957, 95, 729), modified by Cheymol (C.R. Soc. Biol., 1963, 157, 521) and Brittain (Nature, London, 1963, […], 895).

| Compound | Acute toxicity LD50 (50% lethal dose) ([1]; dihydrochloride) | analgesic effects of the central type (heated plate test), compared with amidopyrine ([2]; versus amidopyrine) | extent of the greater activity than amidopyrine in the heated plate test ([2]; versus amidopyrine) | ED40 [3] | ED50 [4] | analgesic effects of the peripheral type (Siegmund test), compared with amidopyrine and glafenine ([4]; mice, oral, versus amidopyrine and glafenine) | Acute toxicity LD50 (50% lethal dose) [1] | central component of the analgesic effect (heated plate test) [2] |
| --- | --- | --- | --- | --- | --- | --- | --- | --- |
| O=C(OCCN1CCN(c2cccc(C(F)(F)F)c2)CC1)c1ccccc1Nc1ccnc2cc(C(F)(F)F)ccc12 [Compound 73-017, 2-(4'-m-trifluoromethylphenyl-piperazino)-ethyl 2-(7'-trifluoromethyl-4'-quinolyl-amino)-benzoate dihydrochloride] | 1,500 mg/kg | greater than that of amidopyrine | considerable | 60 mg/kg | 4 mg/kg | generally much more active | – | – |
| O=C(OCC(O)CO)c1ccccc1Nc1ccnc2cc(Cl)ccc12 (stereo not shown) [Glafenine, reference compound] | – | – | – | 30 mg/kg | 50 mg/kg | – | 3,500 mg/kg | much less strong |
